Test results reported in patent publication US20050282743A1, “Molecular interactions in cells” (Arbor Vita Corporation, priority 2001, published 2005).
Ends that are not written are not given here. Peptide text beside a SMILES is read from it. * marks the point of attachment. Biotin = O=C1N[C@H]2[C@H](CS[C@H]2CCCCC(=O)*)N1

target: T1, PDZ protein (GST-PDZ fusion) (Homo sapiens, UniProt O14641); assay: G' assay (10 uM PL peptide), results of TABLE 7 and TABLE 12; assay type: binding; conditions: PDZ DVL2, PDZ Domain 1
T1 construct: made in house; host or cells: E. coli (DH5alpha, BL21 or JM109)
T1 sequence (O14641 1-736): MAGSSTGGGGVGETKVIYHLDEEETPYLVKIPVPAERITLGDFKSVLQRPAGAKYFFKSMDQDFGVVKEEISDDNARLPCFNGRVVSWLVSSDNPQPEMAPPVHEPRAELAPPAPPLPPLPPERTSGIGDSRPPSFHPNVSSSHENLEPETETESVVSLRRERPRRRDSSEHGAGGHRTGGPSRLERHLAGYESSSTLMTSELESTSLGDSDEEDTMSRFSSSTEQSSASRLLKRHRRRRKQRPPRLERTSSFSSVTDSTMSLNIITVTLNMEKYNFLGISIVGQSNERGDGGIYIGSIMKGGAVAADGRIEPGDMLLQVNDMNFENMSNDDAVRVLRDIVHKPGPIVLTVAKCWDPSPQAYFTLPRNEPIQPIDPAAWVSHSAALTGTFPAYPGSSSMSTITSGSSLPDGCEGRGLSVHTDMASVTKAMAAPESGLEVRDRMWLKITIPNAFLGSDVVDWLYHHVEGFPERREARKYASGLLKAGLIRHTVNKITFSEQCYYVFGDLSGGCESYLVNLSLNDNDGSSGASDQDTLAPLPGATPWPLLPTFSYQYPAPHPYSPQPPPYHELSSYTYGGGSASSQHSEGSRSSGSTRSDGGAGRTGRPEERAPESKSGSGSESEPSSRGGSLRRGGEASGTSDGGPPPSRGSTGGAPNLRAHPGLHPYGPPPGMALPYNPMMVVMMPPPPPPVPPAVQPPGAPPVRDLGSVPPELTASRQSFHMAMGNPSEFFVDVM
Method in brief: (§1)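 Binding classes derive from A450 nm of bound biotin-tagged PL peptide. A score of 5 needs A450 above 4 in more than two repeats.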

Classification | Molecule
3 (A450 nm 2-3) | A2AC_HUMAN (Modified) (Biotin-DFRPSFKHILFRRARRGFRQ; not fully specified)
2 (A450 nm 1-2) | KTMPAAMFRLLTGQETPLYI (Biotin-KTMPAAMFRLLTGQETPLYI) [MINT-2]
5 (A450 nm of 4 more than 2× repeated) | ELLQFCRTPNPALKNGQYWV (Biotin-ELLQFCRTPNPALKNGQYWV)
2 (A450 nm 1-2) | ALVLIAFCIIRRRPSAYQAL (Biotin-ALVLIAFCIIRRRPSAYQAL) [CD68]
1 (A450 nm 0-1) | CC[C@H](C)[C@H](NC(=O)[C@H](Cc1ccc(O)cc1)NC(=O)[C@H](CC(C)C)NC(=O)[C@H](CCC(N)=O)NC(=O)[C@H](Cc1c[nH]cn1)NC(=O)[C@H](CO)NC(=O)[C@H](C)NC(=O)[C@H](CC(C)C)NC(=O)[C@@H](NC(=O)[C@H](CC(=O)O)NC(=O)[C@H](CCSC)NC(=O)[C@H](Cc1ccccc1)NC(=O)[C@@H]1CCCN1C(=O)[C@H](CCCNC(=N)N)NC(=O)[C@@H](NC(=O)[C@H](CC(C)C)NC(=O)[C@H](CC(N)=O)NC(=O)[C@H](CC(=O)O)NC(=O)[C@@H](NC(=O)[C@H](CO)NC(=O)CCCC[C@@H]1SC[C@@H]2NC(=O)N[C@@H]21)[C@@H](C)O)C(C)C)[C@@H](C)O)C(=O)O [presenilin-2] (Biotin-STDNLVRPFMDTLASHQLYI-OH; C-terminus assumed)
1 (A450 nm 0-1) | KTMPAATYRLLTGQEQPVYL (Biotin-KTMPAATYRLLTGQEQPVYL) [MINT-3]
2 (A450 nm 1-2) | CC[C@H](C)[C@H](NC(=O)[C@H](Cc1ccc(O)cc1)NC(=O)[C@@H](NC(=O)[C@@H]1CCCN1C(=O)[C@H](CCC(N)=O)NC(=O)[C@H](CCC(=O)O)NC(=O)[C@H](CCC(N)=O)NC(=O)[C@H](C)NC(=O)[C@@H](NC(=O)[C@H](CC(C)C)NC(=O)[C@H](CC(C)C)NC(=O)[C@H](CCCNC(=N)N)NC(=O)[C@H](Cc1ccc(O)cc1)NC(=O)[C@H](CCSC)NC(=O)[C@H](C)NC(=O)[C@H](C)NC(=O)[C@@H]1CCCN1C(=O)[C@H](CCSC)NC(=O)[C@@H](NC(=O)[C@H](CCCCN)NC(=O)CCCC[C@@H]1SC[C@@H]2NC(=O)N[C@@H]21)[C@@H](C)O)[C@@H](C)O)C(C)C)C(=O)O [MINT-1] (Biotin-KTMPAAMYRLLTAQEQPVYI-OH; C-terminus assumed)

target: T2, PDZ protein (GST-PDZ fusion) (Homo sapiens, UniProt Q14CM0); assay: as above; assay type: binding; conditions: PDZ KIAA0316, PDZ Domain 1
T2 construct: made in house; host or cells: E. coli (DH5alpha, BL21 or JM109)
T2 sequence (Q14CM0 1-1322): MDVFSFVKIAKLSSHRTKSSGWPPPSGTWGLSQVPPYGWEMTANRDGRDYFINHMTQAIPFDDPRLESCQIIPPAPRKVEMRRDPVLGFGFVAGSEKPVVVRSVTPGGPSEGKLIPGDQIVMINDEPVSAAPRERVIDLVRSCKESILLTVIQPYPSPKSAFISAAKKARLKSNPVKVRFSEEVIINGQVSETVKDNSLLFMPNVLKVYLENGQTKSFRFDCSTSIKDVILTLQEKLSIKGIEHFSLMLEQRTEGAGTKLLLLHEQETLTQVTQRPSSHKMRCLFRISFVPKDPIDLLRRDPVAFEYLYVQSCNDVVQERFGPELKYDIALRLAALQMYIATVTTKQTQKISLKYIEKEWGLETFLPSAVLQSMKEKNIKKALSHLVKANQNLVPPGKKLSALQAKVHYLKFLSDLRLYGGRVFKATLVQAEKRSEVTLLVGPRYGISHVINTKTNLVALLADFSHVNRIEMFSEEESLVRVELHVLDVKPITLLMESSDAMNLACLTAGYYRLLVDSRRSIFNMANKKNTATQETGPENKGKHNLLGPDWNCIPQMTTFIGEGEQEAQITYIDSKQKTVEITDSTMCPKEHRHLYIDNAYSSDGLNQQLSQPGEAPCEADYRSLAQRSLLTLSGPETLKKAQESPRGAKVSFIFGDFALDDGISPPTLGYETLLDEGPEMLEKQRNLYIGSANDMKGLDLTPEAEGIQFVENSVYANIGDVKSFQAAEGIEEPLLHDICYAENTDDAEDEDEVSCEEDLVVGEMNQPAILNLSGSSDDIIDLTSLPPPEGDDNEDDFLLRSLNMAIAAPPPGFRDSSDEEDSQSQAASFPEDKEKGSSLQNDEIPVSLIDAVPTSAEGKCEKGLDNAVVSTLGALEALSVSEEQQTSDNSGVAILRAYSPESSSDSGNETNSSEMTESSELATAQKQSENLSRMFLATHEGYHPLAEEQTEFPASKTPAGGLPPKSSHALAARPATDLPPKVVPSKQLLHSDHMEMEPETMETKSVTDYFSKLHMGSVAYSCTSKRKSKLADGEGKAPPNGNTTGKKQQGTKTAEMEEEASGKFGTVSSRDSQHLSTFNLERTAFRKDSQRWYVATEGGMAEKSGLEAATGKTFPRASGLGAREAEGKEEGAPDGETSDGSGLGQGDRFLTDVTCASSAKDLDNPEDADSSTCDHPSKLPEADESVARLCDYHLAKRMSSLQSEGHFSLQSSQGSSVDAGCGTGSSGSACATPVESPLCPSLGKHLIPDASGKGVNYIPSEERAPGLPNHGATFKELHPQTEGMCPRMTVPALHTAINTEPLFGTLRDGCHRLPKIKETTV
Method in brief: as §1

Classification | Molecule
1 (A450 nm 0-1) | CC(C)C[C@H](NC(=O)[C@H](CC(=O)O)NC(=O)[C@H](CO)NC(=O)[C@H](CCC(=O)O)NC(=O)CNC(=O)[C@H](Cc1ccc(O)cc1)NC(=O)[C@H](CC(C)C)NC(=O)[C@H](C)NC(=O)[C@H](CO)NC(=O)[C@H](CO)NC(=O)[C@H](Cc1ccccc1)NC(=O)[C@H](C)NC(=O)[C@H](C)NC(=O)[C@H](Cc1ccc(O)cc1)NC(=O)[C@H](CC(=O)O)NC(=O)[C@H](CC(C)C)NC(=O)[C@H](C)NC(=O)CNC(=O)[C@@H]1CCCN1C(=O)[C@@H](NC(=O)CCCC[C@@H]1SC[C@@H]2NC(=O)N[C@@H]21)C(C)C)C(=O)O [a-actinin 2] (Biotin-VPGALDYAAFSSALYGESDL-OH; C-terminus assumed)
2 (A450 nm 1-2) | KTMPAATYRLLTGQEQPVYL (Biotin-KTMPAATYRLLTGQEQPVYL) [MINT-3]
1 (A450 nm 0-1) | CC(C)C[C@H](NC(=O)[C@H](CC(C)C)NC(=O)[C@@H](NC(=O)[C@H](CC(=O)O)NC(=O)CCCC[C@@H]1SC[C@@H]2NC(=O)N[C@@H]21)[C@@H](C)O)C(=O)N[C@@H](CC(C)C)C(=O)N[C@H](C(=O)N[C@@H](CCC(=O)O)C(=O)N[C@@H](CC(N)=O)C(=O)N[C@@H](CCC(=O)O)C(=O)NCC(=O)N[C@@H](CC(=O)O)C(=O)N[C@@H](CCCCN)C(=O)N[C@H](C(=O)N[C@@H](CCC(=O)O)C(=O)N[C@@H](CCC(=O)O)C(=O)N[C@@H](CCC(N)=O)C(=O)N[C@H](C(=O)N[C@@H](CO)C(=O)N[C@@H](Cc1ccc(O)cc1)C(=O)N[C@H](C(=O)O)C(C)C)C(C)C)[C@@H](C)O)[C@@H](C)O [5H2B_HUMAN] (Biotin-DTLLLTENEGDKTEEQVSYV-OH; C-terminus assumed)
1 (A450 nm 0-1) | CC[C@H](C)[C@H](NC(=O)[C@H](CO)NC(=O)[C@H](CCC(=O)O)NC(=O)[C@H](Cc1ccc(O)cc1)NC(=O)[C@H](CC(=O)O)NC(=O)[C@H](CC(N)=O)NC(=O)[C@H](CCC(=O)O)NC(=O)[C@H](CCCCN)NC(=O)CCCC[C@@H]1SC[C@@H]2NC(=O)N[C@@H]21)C(=O)N[C@@H](CO)C(=O)N[C@@H](CC(=O)O)C(=O)N[C@@H](CC(C)C)C(=O)N[C@@H](CCC(N)=O)C(=O)N[C@@H](CCC(N)=O)C(=O)NCC(=O)N[C@@H](CCCNC(=N)N)C(=O)N[C@@H](CC(=O)O)C(=O)N[C@H](C(=O)N[C@H](C(=O)N[C@@H](CCCNC(=N)N)C(=O)N[C@@H](CC(C)C)C(=O)O)[C@@H](C)O)[C@@H](C)CC [PAG] (Biotin-KENDYESISDLQQGRDITRL-OH; C-terminus assumed)

Molecule | Classification
CC(C)C[C@H](NC(=O)[C@H](C)NC(=O)[C@@H](NC(=O)[C@@H](NC(=O)[C@H](Cc1c[nH]cn1)NC(=O)[C@H](CC(C)C)NC(=O)CNC(=O)[C@H](CCC(N)=O)NC(=O)CNC(=O)CNC(=O)[C@H](C)NC(=O)[C@H](C)NC(=O)[C@H](CCCNC(=N)N)NC(=O)[C@H](C)NC(=O)[C@H](CO)NC(=O)[C@H](CC(=O)O)NC(=O)[C@H](CC(=O)O)NC(=O)[C@H](Cc1c[nH]c2ccccc12)NC(=O)[C@H](C)NC(=O)CCCC[C@@H]1SC[C@@H]2NC(=O)N[C@@H]21)C(C)C)[C@@H](C)O)C(=O)O [LPAP] (Biotin-AWDDSARAAGGQGLHVTAL-OH; C-terminus assumed) | 1 (A450 nm 0-1)
CC(C)C[C@H](NC(=O)[C@H](C)NC(=O)[C@@H](NC(=O)[C@H](CCC(=O)O)NC(=O)[C@H](CCCNC(=N)N)NC(=O)[C@H](CCCNC(=N)N)NC(=O)CNC(=O)[C@H](CCC(N)=O)NC(=O)[C@H](CC(C)C)NC(=O)[C@H](CCCNC(=N)N)NC(=O)CNC(=O)CNC(=O)[C@H](CCCNC(=N)N)NC(=O)[C@H](C)NC(=O)[C@H](CO)NC(=O)[C@H](CCCNC(=N)N)NC(=O)CNC(=O)CNC(=O)[C@H](C)NC(=O)[C@H](C)NC(=O)CCCC[C@@H]1SC[C@@H]2NC(=O)N[C@@H]21)[C@@H](C)O)C(=O)O [HPV E6 33 (modified)] (Biotin-AAGGRSARGGRLQGRRETAL-OH; C-terminus assumed) | 2 (A450 nm 1-2)
